This is an account of results in ChEMBL document CHEMBL2074140, “Identification and characterization of a prostaglandin transporter” (Science, 1995).

Each structure is given as a SMILES string.

The experiment concerns the target Solute carrier organic anion transporter family member 2A1 (Rattus norvegicus, UniProt Q00910). As to the kind of experiment: TP_TRANSPORTER: inhibition of PGF2alpha uptake in PGT-expressing HeLa cells. Type of experiment: functional, cell-based.
Consider `Cc1c(C2(c3cc(Br)c(O)c(Br)c3C)OS(=O)(=O)c3ccccc32)cc(Br)c(O)c1Br` [BROMCRESOL GREEN], for which the Ki (as a rule, a measure of affinity in units of concentration, obtained from inhibition or displacement) is 3.6 µM. This lies in the single-digit micromolar range.

`NS(=O)(=O)c1cc(C(=O)O)c(NCc2ccco2)cc1Cl` [FUROSEMIDE] gave an inhibitory constant (Ki) of 47 µM.

As to `CC1(C)C(/C=C/C=C/C=C/C=C2\N(CCCCS(=O)(=O)O)c3ccc4ccccc4c3C2(C)C)=[N+](CCCCS(=O)(=O)[O-])c2ccc3ccccc3c21` [INDOCYANINE GREEN], the Ki turned out to be 35 µM.

In the case of `O=C1OC(c2ccc(O)c(S(=O)(=O)O)c2)(c2ccc(O)c(S(=O)(=O)O)c2)c2c(Br)c(Br)c(Br)c(Br)c21` [SULFOBROMOPHTHALEIN SODIUM], the affinity, expressed as Ki, was 5.8 µM.
